One assay deals with NCI-H295R. Kind of assay: area under concentration-response curve (viability) (AUC (a.u.)); higher = less active. Conditions: 48 h. A digest of the protocol: (§1)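 Luminescence from CellTiter-Glo, read after 48 h, measured three adrenocortical carcinoma cell lines treated in 1,536-well plates with library compounds at 11 concentrations. Values were normalised per plate to vehicle and empty-well controls. The AC50 and area under the curve come from fitted concentration-response curves in inhibitory or non-responding classes only.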

The test system of another assay is CU-ACC1. Described as above. Conditions: 48 h. A digest of the protocol:
as §1

The structures appear in SMILES notation.

For `O=[S+]([O-])(CC1CS1)c1ccc(Oc2ccccc2)cc1` (stereo not given), the “area under concentration-response curve” value in the assay with NCI-H295R stood at 542.

Turning to `CCc1c(O)cc(O)c(C(=O)c2ccc(OCCN3CCOCC3)c(OC)c2)c1CC(=O)N(CCOC)CCOC`, the “area under concentration-response curve” value in the assay with CU-ACC1 was 216.

On to `OC1=CC(=C(C=C1)\C2=C(O)\C(=O)C3=C(O2)C=C(O)C=C3O)O`, for which the “area under concentration-response curve” value in the assay with NCI-H295R is 591. Consider `OC[C@H]1O[C@H]([C@@H](F)[C@@H]1O)N2\C=C/C(=O)NC2=O`, for which the “area under concentration-response curve” value with CU-ACC1 was 370.

For `Cc1ccc(-c2ncc(Cl)cc2-c2ccc([S+](C)(=O)[O-])cc2)cn1`, the “area under concentration-response curve” value in the assay with CU-ACC1 was 366. As for `C[C@@H]1CCN(C(=O)CC#N)C[C@@H]1N(C)c1ncnc2[nH]ccc12`, the “area under concentration-response curve” value in the assay with CU-ACC1 was found to be 305. The same measure, in the same setting: in the case of `C[C@]12CC[C@H]3[C@@H](CC(=C)\C4=C\C(=O)\C=C/[C@]34C)[C@@H]1CCC2=O` it was 320; in that of `O=C(O)C[C@H]1CCc2c1[nH]c1ccc(OCc3ccc(C4CCCC4)c(C(F)(F)F)c3)cc21`, 506; in that of `O=C(/C=C/N1C[C@H]2C[C@@H]1CN2c1ccccn1)c1ccccc1O`, 306. For the compound `O=C(CCc1ccc(O)cc1)c1c(O)cc(O)cc1O[C@@H]1O[C@H](CO)[C@@H](O)[C@H](O)[C@H]1O`, in the assay with NCI-H295R, the “area under concentration-response curve” value is 242. `CC(C)Oc1ccc2c(=O)c(-c3ccccc3)coc2c1`: the “area under concentration-response curve” value in the assay on NCI-H295R amounted to 559. For `C=CCN1C[C@H](C(=O)N(CCCN(C)C)C(=O)NCC)CC2c3cccc4[nH]cc(c34)C[C@H]21` (stereo not given in full), the “area under concentration-response curve” value with NCI-H295R stood at 545. Take `COc1ccc(Cc2ccc(NC(N)=O)cc2)cc1-c1cccc(Cl)c1`: the “area under concentration-response curve” value in the assay on CU-ACC1 was determined as 480. On to `Cc1c(C)n(Cc2ccc(-c3ccccc3C(=O)O)cc2)c2ccc(C(=O)N[C@@H](C)c3ccc([N+](=O)[O-])cc3)cc12`, for which the “area under concentration-response curve” value with NCI-H295R came out at 402. On to `CCCCCNC(=O)N1CCC(CN(Cc2ccc(Cl)cc2)Cc2ccc([N+](=O)[O-])s2)C1` (stereo not given), for which the “area under concentration-response curve” value with CU-ACC1 came to 509.

Consider `O=P1(NCCCl)OCCCN1CCCl` (stereo not given), for which the “area under concentration-response curve” value in the assay on NCI-H295R worked out at 553.

With `N[S+](=O)([O-])c1ccc(Nc2nc(OCC3CCCCC3)c3[nH]cnc3n2)cc1`, in the assay on NCI-H295R, the “area under concentration-response curve” value was found to be 554. Take `OC1=CC=C(C=C1)\C2=C\OC3=C(C=CC(=C3)O)C2=O`: in the assay on NCI-H295R, the “area under concentration-response curve” value came out at 565. On the same count and under the same terms, in the case of `COc1ncc(-c2ccc3c(Nc4cc(Oc5cc(F)cc(F)c5)cc(C(=O)O)c4)c([S+](=O)([O-])NC4CC4)cnc3c2)c(OC)n1` it was 516.

As to `CC(=O)c1c(O)c(C)c(O)c(Cc2c(O)c3c(c(C(=O)/C=C/c4ccccc4)c2O)OC(C)(C)C=C3)c1O`, in the assay on CU-ACC1, the “area under concentration-response curve” value is 323. `O=C(O)CCCCCC(=O)NN=C1CCCC1`: the “area under concentration-response curve” value in the assay with NCI-H295R was 548. Still for that read-out and setting: in the case of `O=c1[nH]c2ccccc2n1CCCN1CCC(n2c(=O)[nH]c3cc(Cl)ccc32)CC1` it was 539; in that of `CN1\N=N/C2=C(N=C[N]2C1=O)C(N)=O`, 581. On to `CSC1=CC(=CC=C1)NC2=NC3=C(C=N2)/C=C(C(=O)N3C)/C4=C(Cl)C=CC=C4Cl`, for which the “area under concentration-response curve” value in the assay with NCI-H295R worked out at 495. For `COc1ccc2cc(-c3[nH]c(-c4ccc([S+](C)[O-])cc4)nc3-c3ccncc3)ccc2c1` (stereo not given), in the assay with CU-ACC1, the “area under concentration-response curve” value was determined as 472. As to `CC1OC(OC/2=C(/OC3=C(C(=CC(=C3)O)O)C2=O)C4=CC=C(O)C=C4)C(O)C(OC(C)=O)C1OC(C)=O` (stereo not given), the “area under concentration-response curve” value in the assay on NCI-H295R was determined as 289. As for `COc1cccc(OCCCN)c1-c1cc(Nc2cnc(C#N)cn2)n[nH]1`, the “area under concentration-response curve” value with CU-ACC1 was 347. As for `O=C(NCCCCN1CCOCC1)c1cc2ccccc2o1`, the “area under concentration-response curve” value in the assay with CU-ACC1 turned out to be 461. Still for that read-out and setting: in the case of `NC(=O)c1cccc2cn(-c3ccc([C@@H]4CCCNC4)cc3)nc12` it was 444; in that of `CCOC(=O)c1ccc(C#Cc2ccc3c(c2)C(C)(C)CCS3)nc1`, 505.

Take `CCCCCCCN(CC)CCCC(O)c1ccc(N[S+](C)(=O)[O-])cc1` (stereo not given): the “area under concentration-response curve” value in the assay on CU-ACC1 stood at 398.

With `FC1=CC=C(CN2\C=C/C=C(/C(=O)N[C@@H](COC3=CC4=C(NC(=O)N4)C=C3)C5=CC=CC=C5)C2=O)C=C1F`, the “area under concentration-response curve” value in the assay on CU-ACC1 amounted to 546. As to `Clc1ccc(COC(Cn2ccnc2)c2ccc(Cl)cc2Cl)cc1` (stereo not given), the “area under concentration-response curve” value in the assay on CU-ACC1 stood at 433. The same measure, in the same setting: in the case of `Cc1ccc(NC(=O)c2ccc(CN3CC[C@H](N(C)C)C3)c(C(F)(F)F)c2)cc1Nc1nccc(-c2cncnc2)n1` it was 549; in that of `COc1cc2c(Oc3ccc4[nH]c(C)cc4c3F)ccnc2cc1OCC1(N)CC1`, 534.

In the case of `O=C(O)CCCc1ccc(N(CCCl)CCCl)cc1`, the “area under concentration-response curve” value in the assay with CU-ACC1 is 300. As for `NC(=O)c1c(OCc2c(F)cc(Br)cc2F)nsc1NC(=O)NCCCCN1CCCC1`, the “area under concentration-response curve” value with CU-ACC1 was 395.

With `Cc1ncc(Cl)cc1NCc1ccc(C(=O)NC(CC2CCCC2)C(=O)NC2CC2)s1` (stereo not given), the “area under concentration-response curve” value with CU-ACC1 came to 467. `CCOC(=O)\C1=C(/C)N\C2=C(C1C3=CC=C(C=C3)C4=CC=CC=C4)\C(=O)CC(C)(C)C2` (stereo not given): in the assay with CU-ACC1, the “area under concentration-response curve” value was determined as 552. On the same count and under the same terms, in the case of `O=C(O)Cc1cccc(OCCCN(Cc2cccc(C(F)(F)F)c2Cl)CC(c2ccccc2)c2ccccc2)c1` it was 535; in that of `CCc1cc2c(cc1N1CCC(N3CCOCC3)CC1)C(C)(C)c1[nH]c3cc(C#N)ccc3c1C2=O`, 416.

`Cc1cc(C)cc(NC(=O)Cc2ccc(OC(C)(C)C(=O)O)cc2)c1`: the “area under concentration-response curve” value with CU-ACC1 amounted to 504. The same measure, in the same setting: in the case of `COc1ccc([S+](=O)([O-])Nc2cc(-c3c(O)ccc4ccccc34)c(O)c3ccccc23)cc1` it was 482; in that of `CC1(C)CCC2(CC1)N[C@@H](C(=O)N[C@@H]1CC[C@@H](C(N)=O)OC1)[C@H](c1ccnc(Cl)c1F)[C@]21C(=O)Nc2cc(Cl)ccc21`, 501; in that of `NC\1=N\C(=O)N(\C=C1)[C@H]\2[C@H](O)[C@H](O)C(=C2F)\CO`, 336. As to `OCCN(CCO)c1nc(N2CCCCC2)c2nc(N(CCO)CCO)nc(N3CCCCC3)c2n1`, the “area under concentration-response curve” value in the assay with CU-ACC1 is 478. `CCCCN(CCCC)C(=O)CN1C[C@H](c2ccc3c(c2)OCO3)[C@@H](C(=O)O)[C@@H]1c1ccc(OC)cc1`: the “area under concentration-response curve” value in the assay with CU-ACC1 stood at 460.

`CO[C@@]12[C@H](COC(N)=O)C/3=C(N1C[C@@H]4N[C@H]24)/C(=O)/C(=C(N)\C3=O)C`: the “area under concentration-response curve” value in the assay on CU-ACC1 stood at 378. Same read-out and setting: in the case of `O=[S+]([O-])(O)c1ccc2cc(/N=N/c3cc([S+](=O)([O-])O)c4cccnc4c3O)ccc2c1` it was 500; in that of `CC[C@H]1OC(=O)[C@H](C)[C@@H](O[C@H]2C[C@@](C)(OC)[C@@H](O)[C@H](C)O2)[C@H](C)[C@@H](O[C@@H]2O[C@H](C)C[C@H](N(C)C)[C@H]2O)[C@](C)(O)C[C@@H](C)CN(C)[C@H](C)[C@@H](O)[C@]1(C)O`, 310.
